Common to all, as to test: growth of human tumour cells (NCI), 48 h
The test system of experiment [1] is DU-145 prostate.
Experiment [2] relates to HCT-116 colon.
Experiment [3] relates to SNB-75 CNS.
The subject of experiment [4] is T-47D breast.
Experiment [5] relates to NCI/ADR-RES ovarian.
Experiment [6] concerns HCT-15 colon.
The test system of experiment [7] is MALME-3M melanoma.
The test system of experiment [8] is UO-31 renal.
Experiment [9] concerns 786-0 renal.
Experiment [10] deals with NCI-H522 lung.
For experiment [11], the system named is MOLT-4 leukemia.
In experiment [12] the test system is OVCAR-3 ovarian.
Experiment [13] concerns CCRF-CEM leukemia.
Experiment [14] concerns HL-60(TB) leukemia.
The subject of experiment [15] is HT29 colon.

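Cultured in 96-well plates, cells were exposed to test compound for 48 hours across five concentrations. TGI is the concentration that stops growth completely.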

As for `CCN1C(=O)C(C)S/C1=N\NC(=O)CSc1nc2ccccc2c(=O)n1CC` (configuration not stated), the TGI in [1], in experiment [2], in experiment [3], in experiment [4], in [5] and in [6] was greater than 100 µM in each case. Also, the TGI in experiment [7], in [8], in experiment [9], in experiment [10], in experiment [11] and in [12] was greater than 100 µM each time. For the same compound, the TGI in [13] and in experiment [14] was greater than 100 µM throughout.
On to `Cc1oc2c(Cl)cc(O)c(Cl)c2c2cccc1-2`, for which the TGI in experiment [15] was greater than 100 µM; in experiment [1] it was 27.5 µM; in experiment [2], 36.4 µM; in experiment [3], 20.7 µM; in experiment [4], 16.5 µM; in [5], 79.9 µM. In addition, the TGI in [6] was 75.4 µM; in experiment [7], 53.1 µM; in experiment [8] it was greater than 100 µM; in experiment [9], 76 µM; in experiment [10], 83.3 µM; in experiment [12], 56.6 µM. The figures for the TGI in [13] and in [14] were 95.3 µM and greater than 100 µM, respectively.
`CCN(CC)c1ccc2cc(C(=O)Nc3ccccc3)c(=N)oc2c1`: the TGI in experiment [15], in experiment [1], in [2], in experiment [3], in experiment [4] and in experiment [5] was greater than 100 µM each time. For the same compound, the TGI in [6], in experiment [7], in [8], in experiment [9], in experiment [11] and in [13] was greater than 100 µM each time. This compound also gave a TGI in experiment [14] greater than 100 µM.
Regarding `COc1cc(C2C(C#N)=C(N)OC3=C2CCS(=O)(=O)c2ccc(C)cc23)cc(OC)c1OC` (configuration not stated), the TGI in experiment [15], in experiment [1], in experiment [2], in experiment [3], in [4] and in experiment [5] was greater than 100 µM throughout. Further, the TGI in experiment [6], in [7], in experiment [8], in [9], in [10] and in experiment [12] was greater than 100 µM throughout. For the same compound, the TGI in [13] and in experiment [14] was greater than 100 µM throughout.
Turning to `Cc1nc2c(=O)n(-c3ccccc3)c3ccccc3c2o1`, the TGI in experiment [15], in [1], in [2], in experiment [3], in [4] and in [5] was greater than 100 µM throughout. In addition, the TGI in [6], in experiment [7], in experiment [8], in experiment [9], in [11] and in experiment [12] was greater than 100 µM throughout. Besides, the TGI in experiment [13] and in experiment [14] was greater than 100 µM in each case.
Turning to `O=C(O)CCc1ccc2c(c1)C(=O)CC2`, the TGI in experiment [15], in experiment [1], in experiment [2], in [4], in experiment [5] and in experiment [6] was greater than 100 µM throughout. In addition, the TGI in experiment [7], in experiment [8], in experiment [9], in experiment [10], in experiment [11] and in [12] was greater than 100 µM throughout. Moreover, the TGI in [13] and in experiment [14] was greater than 100 µM in each case.
On to `COCCCNC(=O)C1=C(C)NC(C)=C(C(=O)NCCCOC)C1`, for which the TGI in experiment [15], in experiment [1], in [2], in experiment [3], in [4] and in experiment [5] was greater than 100 µM in each case. Further, the TGI in [7] was 41.2 µM; in experiment [8], greater than 100 µM; in [9] it was greater than 100 µM; in [10] it was 27.4 µM; in [11], greater than 100 µM; in experiment [12] it was greater than 100 µM. In addition, the TGI in experiment [13] and in experiment [14] was greater than 100 µM each time.
`COC(=O)/C=C1/CCC(C)(C(=O)NS(=O)(=O)c2ccc(C)cc2)C1(C)C` (configuration not stated): the TGI in [1], in experiment [2], in [4], in experiment [5], in experiment [6] and in experiment [7] was greater than 100 µM throughout. Besides, the TGI in experiment [8], in experiment [9], in [10], in [11], in [12] and in [13] was greater than 100 µM in each case. The compound further returned a TGI in experiment [14] greater than 100 µM.
`CCOC(=O)c1cnc2n(c1=N)[C@H]1CCCC[C@@H]1N2`: the TGI in experiment [15], in [1], in experiment [2], in [3], in [4] and in [5] was greater than 100 µM each time. Further, the TGI in experiment [6], in [7], in [8], in experiment [9], in experiment [10] and in [11] was greater than 100 µM each time. Further, the TGI in experiment [12] and in experiment [14] was greater than 100 µM in each case.
`c1ccc(-n2nc3ccc4nonc4c3n2)cc1`: the TGI in experiment [15], in [1], in experiment [2], in [3], in experiment [4] and in experiment [5] was greater than 100 µM throughout. In addition, the TGI in [6], in experiment [7], in [9], in experiment [11], in [12] and in experiment [13] was greater than 100 µM throughout. This compound also displayed a TGI in [14] greater than 100 µM.

(Values after PubChem BioAssay (NCI).)
